In paper PMC7555825, “New Insights of the Zn(II)-Induced P2 × 4R Positive Allosteric Modulation: Role of Head Receptor Domain SS2/SS3, E160 and D170” (International Journal of Molecular Sciences, 2020):
Blank lines part the entries; values can stand above or below the compound they belong to.

Experiments:
[1] = molecular target: T1, rP2 × 4R (Rattus norvegicus, UniProt P51577); test: Short protocol: Zn(II) potentiation of single 10 µM ATP-evoked currents before/after thiol reagent treatment, rP2 × 4R oocytes; format: cell-based; settings: for effect of alkylator plus Zn(II) treatment on Zn(II)-induced potentiation: 300 µM alkylator + 10 µM Zn(II)
T1 construct: host or cells: Xenopus laevis oocytes (intranuclear plasmid injection, pcDNA3)
T1 sequence (P51577 1-388): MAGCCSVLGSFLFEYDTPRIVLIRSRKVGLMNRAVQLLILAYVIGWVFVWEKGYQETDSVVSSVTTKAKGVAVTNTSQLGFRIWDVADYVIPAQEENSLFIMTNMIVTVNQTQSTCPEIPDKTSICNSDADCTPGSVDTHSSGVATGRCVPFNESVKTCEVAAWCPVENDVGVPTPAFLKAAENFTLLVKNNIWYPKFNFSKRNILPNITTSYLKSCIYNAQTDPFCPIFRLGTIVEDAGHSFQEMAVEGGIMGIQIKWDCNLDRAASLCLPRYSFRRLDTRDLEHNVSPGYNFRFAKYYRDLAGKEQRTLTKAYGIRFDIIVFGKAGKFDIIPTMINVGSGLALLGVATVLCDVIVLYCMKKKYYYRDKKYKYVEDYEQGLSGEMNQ
Method: (§1) A simpler and shorter assay to test the Zn(II) potentiation was developed to better assess the loss of Zn(II) modulation elicited by the joint co-treatment of NEM plus Zn(II). […] Ten minutes after alkylator washout, cells were treated with Zn(II) plus NEM or iodoacetamide (IA) for 5 min followed by 20 min of alkylator washout. Next, the P2 × R was tested again to examine the magnitude of the Zn(II) potentiation.
(§2) After 10 min of washout we applied 300 µM NEM, 300 µM IA, 300 µM IAc, or 300 µM DTNB for 5 min in absence or presence of Zn(II) (10 µM for rP2 × 4R and 30 µM for rP2 × 2R).
(§3) After 10 min of washout we applied 300 µM NEM + 10 µM DTT.

[2] = molecular target: T1, rP2 × 4R; test: as above; format: cell-based; settings: 10, 30, 100 µM DTT
[3] = test system: oocytes; test: Toxicity of DTT to oocytes (loss of holding potential); format: cell-based, Xenopus laevis; settings: DTT concentrations larger than 100 µM; holding potential lost
Method: Larger DTT concentrations were toxic since the oocyte holding potential was lost, a likely acute toxicity indication.
as §3

[4] = molecular target: T2, rP2 × 2R (Rattus norvegicus, UniProt P49653); test: Short protocol: Zn(II) potentiation of single 10 µM ATP-evoked currents before/after thiol reagent treatment, rP2 × 2R oocytes; format: cell-based; set-up: expressed in transfected cells; host or cells: Xenopus laevis oocytes (intranuclear plasmid injection); settings: for effect of alkylator plus Zn(II) treatment on Zn(II) potentiation/modulation: 300 µM alkylator + 30 µM Zn(II), 5 min, 20 min washout
T2 sequence (P49653 1-472): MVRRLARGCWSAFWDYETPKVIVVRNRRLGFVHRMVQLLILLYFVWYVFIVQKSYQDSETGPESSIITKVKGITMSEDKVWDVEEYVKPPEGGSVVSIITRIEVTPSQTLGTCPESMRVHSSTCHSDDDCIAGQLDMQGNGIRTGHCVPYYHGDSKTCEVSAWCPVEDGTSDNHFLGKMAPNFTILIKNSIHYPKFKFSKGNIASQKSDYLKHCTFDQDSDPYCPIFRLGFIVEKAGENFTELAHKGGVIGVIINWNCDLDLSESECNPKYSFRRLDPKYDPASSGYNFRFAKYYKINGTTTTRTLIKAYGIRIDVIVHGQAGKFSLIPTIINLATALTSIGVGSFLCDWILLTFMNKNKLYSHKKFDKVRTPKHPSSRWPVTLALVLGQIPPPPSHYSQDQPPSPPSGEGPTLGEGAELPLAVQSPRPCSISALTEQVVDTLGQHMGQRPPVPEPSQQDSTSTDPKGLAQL
Method: as §1, §2

[5] = molecular target: T1, rP2 × 4R; set-up: method as in PMID 17962187; settings: treatment in the absence of Zn(II); cited from earlier work
[6] = molecular target: T1, rP2 × 4R; test: ATP concentration–response curves, two-electrode voltage clamp in oocytes expressing wild type rP2 × 4R; format: cell-based; settings: NEM plus Zn(II) treatment; irreversible alkylation

fold enhancement of ATP-evoked currents after treatment ([1]; after combined 10 µM DTT plus 300 µM NEM treatment, 5 min, 20 min washout): 3.9 ± 1.2 fold
SMILES: O[C@@H](CS)[C@@H](O)CS (racemic) [DTT, dithiothreitol]
potentiation of 10 µM ATP-evoked currents by co-applied DTT [2]: neither 10, 30, nor 100 µM DTT potentiated the ATP-evoked currents
toxicity to oocytes [3]: toxic

SMILES: O=C(O)c1cc(SSc2ccc([N+](=O)[O-])c(C(=O)O)c2)ccc1[N+](=O)[O-] [DTNB, 5,5’-dithiobis-(2-nitrobenzoic) acid]
effect of alkylator plus Zn(II) treatment on Zn(II)-induced potentiation ([1]; 5 min, 20 min washout): neither of the reagents blocked

SMILES: NC(=O)CI [IA, Iodoacetamide]
ATP-evoked currents after IA plus Zn(II) treatment ([1]; 300 µM IA + 10 µM Zn(II), 5 min, 20 min washout): not increased
effect of alkylator plus Zn(II) treatment on Zn(II)-induced potentiation ([1]; 5 min, 20 min washout): abolished the Zn(II)-induced potentiation
effect of alkylator plus Zn(II) treatment on Zn(II) potentiation/modulation [4]: annulled the Zn(II) potentiation
fold enhancement of ATP-evoked currents after treatment ([4]; after IA + 30 µM Zn(II) treatment): 8.6 ± 3.3 fold

SMILES: O=C(O)CI [IAc, Iodoacetate]
effect of alkylator plus Zn(II) treatment on Zn(II)-induced potentiation ([1]; 5 min, 20 min washout): neither of the reagents blocked

SMILES: C[N+](C)(C)CCSS(C)(=O)=O [MTSET, 2-(trimethylammonium)ethyl methanethiosulfonate]
effect of MTSET treatment on Zn(II) potentiation [5]: diminish the Zn(II) potentiation

SMILES: CCN1C(=O)C=CC1=O [NEM, N-ethylmaleimide]
time the lack of metal potentiation endured after NEM treatment [6]: at least 1 h
fold increase of ATP-evoked currents after treatment ([1]; 10 µM ATP, after 300 µM NEM plus 10 µM Zn(II) treatment, vs first ATP current): 4.0 ± 1.0 fold
effect of alkylator plus Zn(II) treatment on Zn(II)-induced potentiation ([1]; 5 min, 20 min washout): abolished the Zn(II)-induced potentiation
effect of alkylator plus Zn(II) treatment on Zn(II) potentiation/modulation [4]: Did Not Annul
fold enhancement of ATP-evoked currents after treatment ([4]; after NEM + 30 µM Zn(II) treatment): 3.3 ± 0.5 fold
